Activity calls are given as the source filed them. No cut-off for these calls is given here.

The test system of this test is MM1.S. Nature of the test: Antiproliferative activity against human MM1.S cells assessed as inhibition of cell growth incubated for 72 hrs by celltiter-glo assay. Type of test: functional, cell-based.

Consider `O=C(NC1CCOCC1)/C(=C/n1cnc(-c2cc(C(F)(F)F)cc(C(F)(F)F)c2)n1)c1cncnc1`, for which the IC50 worked out at 142 nM.
The same measure, in the same setting: then `O=C(NNc1cnccn1)/C(=C/n1cnc(-c2cc(C(F)(F)F)cc(C(F)(F)F)c2)n1)c1cncnc1`, with 328 nM; and `CNC(=O)/C(=C/n1cnc(-c2cc(C(F)(F)F)cc(C(F)(F)F)c2)n1)c1cncnc1`, with 189 nM.
On the same count and under the same terms, then `NC(=O)/C(=C/n1cnc(-c2cc(C(F)(F)F)cc(C(F)(F)F)c2)n1)c1ccc(F)nc1`, with 1470 nM.
As to `CN(C)c1ncc(/C(=C\C(N)=O)c2cnn(-c3cc(C(F)(F)F)cc(C(F)(F)F)c3)c2)cn1`, the outcome was inactive.
Same read-out and setting: then `NC(=O)/C=C(\c1cncnc1)c1cnn(-c2cc(C(F)(F)F)cc(C(F)(F)F)c2)c1`, with “inactive”.
Consider `CONC(=O)/C(=C/n1cnc(-c2cc(C(F)(F)F)cc(C(F)(F)F)c2)n1)c1ccncc1`, for which the IC50 turned out to be 202 nM.
Same read-out and setting: then `CONC(=O)/C(=C/n1cnc(-c2cc(C(F)(F)F)cc(C(F)(F)F)c2)n1)c1ccn(C)n1`, with 1200 nM; and `CONC(=O)/C(=C/n1cnc(-c2cc(OC(=O)CCNC(=O)CCCC[C@@H]3SC[C@@H]4NC(=O)N[C@@H]43)cc(C(F)(F)F)c2)n1)c1cncnc1`, with 1700 nM.
For `NC(=O)/C=C(\c1ccc(C(F)(F)F)nc1)c1cnn(-c2cc(C(F)(F)F)cc(C(F)(F)F)c2)c1`, the outcome was inactive.
On to `NC(=O)/C(=C/n1cnc(-c2cc(C(F)(F)F)cc(C(F)(F)F)c2)n1)c1ccncc1`, for which the IC50 came out at 128 nM.
For the compound `NC(=O)/C(=C/n1cnc(-c2cc(C(F)(F)F)cc(C(F)(F)F)c2)n1)c1cncc(F)c1`, the IC50 stood at 259 nM.
Regarding `Cc1ccc(/C(=C\n2cnc(-c3cc(C(F)(F)F)cc(C(F)(F)F)c3)n2)C(N)=O)cn1`, the result was inactive.
On to `NC(=O)/C(=C/n1cnc(-c2cc(C(F)(F)F)cc(C(F)(F)F)c2)n1)c1ccc(C(F)(F)F)nc1`, for which the IC50 worked out at 1660 nM.
`O=C(NC12CC3CCC1CC(C3)C2)/C(=C/n1cnc(-c2cc(C(F)(F)F)cc(C(F)(F)F)c2)n1)c1cncnc1` (centres undefined): the half-maximal inhibitory concentration (IC50) was 323 nM.
With `N#Cc1ccc(/C(=C\c2cnn(-c3cc(C(F)(F)F)cc(C(F)(F)F)c3)c2)C(N)=O)cn1`, the half-maximal inhibitory concentration (IC50) was determined as 1410 nM.
Turning to `Cc1ccc(/C(=C\C(N)=O)c2cnn(-c3cc(C(F)(F)F)cc(C(F)(F)F)c3)c2)cn1`, the result was inactive.
Turning to `O=C(NC1CC1)/C(=C/n1cnc(-c2cc(C(F)(F)F)cc(C(F)(F)F)c2)n1)c1cncnc1`, the IC50 amounted to 178 nM.
Consider `CONC(=O)/C(=C/n1cnc(-c2cc(C(F)(F)F)cc(C(F)(F)F)c2)n1)c1cnc(Cl)nc1`, for which the IC50 was found to be 485 nM.
Consider `CN(C)c1ncc(/C(=C\c2cnn(-c3cc(C(F)(F)F)cc(C(F)(F)F)c3)c2)C(N)=O)cn1`, for which the outcome was inactive.
For `N#Cc1ccc(/C(=C\C(N)=O)c2cnn(-c3cc(C(F)(F)F)cc(C(F)(F)F)c3)c2)cn1`, the outcome was inactive.
For `NC(=O)/C(=C/c1cnn(-c2cc(C(F)(F)F)cc(C(F)(F)F)c2)c1)c1ccc(C(F)(F)F)nc1`, the IC50 stood at 1340 nM.
Same read-out and setting: then `O=C(NC1CCCCCC1)/C(=C/n1cnc(-c2cc(C(F)(F)F)cc(C(F)(F)F)c2)n1)c1cncnc1`, with 321 nM; and `N#Cc1ccc(/C(=C\n2cnc(-c3cc(C(F)(F)F)cc(C(F)(F)F)c3)n2)C(N)=O)cn1`, with 176 nM.
As to `NC(=O)/C(=C/c1cnn(-c2cc(C(F)(F)F)cc(C(F)(F)F)c2)c1)c1ccc(F)nc1`, the result was inactive.
As to `COc1ncc(/C(=C\c2cnn(-c3cc(C(F)(F)F)cc(C(F)(F)F)c3)c2)C(N)=O)cn1`, the IC50 worked out at 2260 nM.
Same read-out and setting: in the case of `O=C(NCc1cccnc1)/C(=C/n1cnc(-c2cc(C(F)(F)F)cc(C(F)(F)F)c2)n1)c1cncnc1` it was 1400 nM; in that of `COc1ncc(/C(=C\n2cnc(-c3cc(C(F)(F)F)cc(C(F)(F)F)c3)n2)C(N)=O)cn1`, 646 nM; in that of `CCONC(=O)/C(=C/n1cnc(-c2cc(C(F)(F)F)cc(C(F)(F)F)c2)n1)c1cncnc1`, 111 nM.

Values taken from ChEMBL document CHEMBL6083277, “Discovery of SZJK-0421: A Novel Potent, Low Toxicity, Selective Second Generation of CRM1 Inhibitor for the Treatment of Both Hematological and Solid Tumors” (J Med Chem, 2024).
